The values that follow come from ChEMBL document CHEMBL1157143, “Modeling and synthesis of novel tight-binding inhibitors of cytochrome P450 2C9” (Bioorg Med Chem, 2008).

A short description of data set [1]: Dissociation constant, pKa of the compound.
The target of data set [2] is Cytochrome P450 2C9 (Homo sapiens, UniProt P11712). In words: Binding affinity to CYP2C9.
Sequence of Cytochrome P450 2C9 (P11712 whole entry): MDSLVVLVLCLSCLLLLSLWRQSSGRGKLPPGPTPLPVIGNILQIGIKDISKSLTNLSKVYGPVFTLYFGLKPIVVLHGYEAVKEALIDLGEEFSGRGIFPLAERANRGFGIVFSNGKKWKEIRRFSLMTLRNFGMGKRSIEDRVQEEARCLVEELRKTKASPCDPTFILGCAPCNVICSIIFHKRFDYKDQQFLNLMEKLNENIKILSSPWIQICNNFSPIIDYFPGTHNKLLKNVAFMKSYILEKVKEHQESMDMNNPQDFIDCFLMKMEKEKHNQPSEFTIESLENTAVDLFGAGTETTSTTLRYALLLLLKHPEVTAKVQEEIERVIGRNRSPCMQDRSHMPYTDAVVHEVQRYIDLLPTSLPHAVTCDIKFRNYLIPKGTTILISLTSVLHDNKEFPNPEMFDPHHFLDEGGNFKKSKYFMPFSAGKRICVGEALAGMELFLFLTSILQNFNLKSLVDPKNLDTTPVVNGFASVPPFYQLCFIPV

As usually defined, the pKa is the pH at which an ionisable group is half protonated. Low values mean a stronger acid or weaker base, high ones a weaker acid or stronger base. Turning to `CCc1oc2ccccc2c(=O)c1C(=O)c1cc(Br)c(O)c(Br)c1`, the pKa in data set [1] worked out at 4.72. As usually defined, the Ki is a dissociation constant, usually derived from enzyme kinetics or from competition with a known ligand. In the case of `Cc1oc2ccccc2c(=O)c1C(=O)c1ccc(O)cc1`, the pKa in data set [1] was found to be 7.74. Moreover, the Ki in data set [2] was 6.74 µM.

`CCCc1oc2ccccc2c(=O)c1C(=O)c1cc(I)c(O)c(I)c1` showed a pKa in data set [1] of 4.89. The Ki in data set [2] came out at 0.0042 µM. Compound `CCCc1oc2ccccc2c(=O)c1C(=O)c1cc(I)c(OC)c(I)c1` came in with a Ki in data set [2] of 0.0443 µM.

In data set [1], `CCc1oc2ccccc2c(=O)c1C(=O)c1cc(I)c(O)c(I)c1` had a pKa of 4.89. Besides, in data set [2], the affinity corresponds to a Ki of 0.023 µM. On to `Cc1oc2ccccc2c(=O)c1C(=O)c1cc(I)c(O)c(I)c1`, for which, in data set [1], the pKa amounted to 4.89. Further, the Ki in data set [2] was determined as 0.041 µM. For the compound `CCCc1oc2ccccc2c(=O)c1C(=O)c1ccc(OC)cc1`, in data set [2], the inhibition constant (Ki) was 3.12 µM. For `CCc1oc2ccccc2c(=O)c1C(=O)c1ccncc1`, in data set [2], the Ki came to 4.87 µM. On to `CCc1oc2ccccc2c(=O)c1C(=O)c1ccc(O)cc1`, for which, in data set [1], the pKa amounted to 7.74. In data set [2], the Ki amounted to 1.42 µM. For `CCCc1oc2ccccc2c(=O)c1C(=O)c1ccc(O)cc1` the same measures were 7.74 and 0.656 µM. For `COc1ccc(C(=O)c2c(C)oc3ccccc3c2=O)cc1`, the Ki in data set [2] came out at 5.93 µM. Still for that read-out and setting: the figure for `CCc1oc2ccccc2c(=O)c1C(=O)c1ccc(OC)cc1` is 6.48 µM.
